Laboratory results published in patent US9868766B2, “Peptides as oxytocin agonists” (Hoffmann-La Roche Inc., priority 2012, dated 2018).
Positions of bridges follow the written chain, without caps; N, C: chain ends. Non-standard residues stand in square brackets, D forms with d. Residues, ends and D or L forms follow the SMILES beside them. Hyp = O=C(O)[C@@H]1C[C@@H](O)CN1; Cha = N[C@@H](CC1CCCCC1)C(=O)O; aThr = C[C@H](O)[C@H](N)C(=O)O; Tle = CC(C)(C)[C@H](N)C(=O)O; Nle = CCCC[C@H](N)C(=O)O; Dab = NCC[C@H](N)C(=O)O; Sar = CNCC(=O)O

What was measured:
Type in all cases: cell-based
[1] = target: T1, human Oxytocin (OTR) receptor (Homo sapiens, UniProt P30559); experiment: Calcium flux assay (FLIPR), agonist mode, CHO cells expressing human OTR; details: for EC50: CHO cells stably expressing human OTR, calcium flux, read-out: hOT EC50; for Emax: CHO, read-out: hOT efficacy (%); for Emax / hOT efficacy (%): maximum response normalized to endogenous full agonist = 100%
T1 construct: expressed in transfected cells
T1 sequence (P30559 1-389): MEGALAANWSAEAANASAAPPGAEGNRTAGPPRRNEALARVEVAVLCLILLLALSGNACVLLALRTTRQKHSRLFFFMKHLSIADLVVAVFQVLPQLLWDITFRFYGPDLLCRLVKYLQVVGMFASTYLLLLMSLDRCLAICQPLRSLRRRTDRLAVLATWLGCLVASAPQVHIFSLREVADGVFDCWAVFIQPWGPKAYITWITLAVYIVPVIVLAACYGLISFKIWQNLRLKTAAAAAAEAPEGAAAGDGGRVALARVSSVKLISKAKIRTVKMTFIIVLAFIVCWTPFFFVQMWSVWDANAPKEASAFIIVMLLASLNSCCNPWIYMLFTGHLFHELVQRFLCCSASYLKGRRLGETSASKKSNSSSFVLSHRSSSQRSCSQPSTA
In short: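 Monoclonal CHO cells stably expressing the receptor were loaded with 2 μM Fluo-4-AM in HBSS with 20 mM HEPES (pH 7.3) and 2.5 mM probenecid. Compound was added 10 s into reading and fluorescence followed for 5 min.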

human V1a receptor = target: T2, human V1a receptor (Homo sapiens, UniProt P37288); experiment: Calcium flux assay (FLIPR), agonist mode, CHO cells expressing human V1a; details: CHO cells stably expressing human V1a; calcium flux; read-out: hV1a EC50
T2 construct: expressed in transfected cells
T2 sequence (P37288 whole entry): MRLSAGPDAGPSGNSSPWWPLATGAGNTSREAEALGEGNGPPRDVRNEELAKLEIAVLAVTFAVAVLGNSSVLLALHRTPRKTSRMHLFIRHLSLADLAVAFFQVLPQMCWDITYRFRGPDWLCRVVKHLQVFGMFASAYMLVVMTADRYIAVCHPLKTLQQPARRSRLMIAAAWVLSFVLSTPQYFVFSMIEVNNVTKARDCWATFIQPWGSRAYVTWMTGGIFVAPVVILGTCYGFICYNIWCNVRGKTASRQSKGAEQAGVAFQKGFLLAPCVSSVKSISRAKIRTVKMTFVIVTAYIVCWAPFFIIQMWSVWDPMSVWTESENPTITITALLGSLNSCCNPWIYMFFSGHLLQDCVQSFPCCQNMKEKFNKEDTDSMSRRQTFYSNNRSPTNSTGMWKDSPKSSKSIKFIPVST
Excerpt: (§1) Chines Hamster Ovary (CHO) cells were transfected with expression plasmids encoding either the human V1a, the human Oxytocin (OTR) or the humanV2 receptor, the later in combination with the chimeric Gqs5 G protein to redirect the signal to Calcium flux. Stable cells were cloned by limiting dilution to yield monoclonal cell lines expressing either human V1a, human V2+Gqs5 or human OTR receptors and selected based on functional responses detected on a fluorometric imaging plate reader (FLIPR) detecting Calcium flux in the cell after receptor activation. The stable cell lines were grown in F-12 K Nutrient Mixture (Kaighns Modification), containing 10% foetal bovine serum (FBS), 1% penicillin-streptomycin, 1% L-glutamate, 200 ug/ml Geneticin at 37° C. in a 10% CO2 incubator at 95% humidity.
(§2) On the afternoon before the assay, cells were plated at a density of 50,000 cells/well into black 96 well plates with clear bottoms to allow cell inspection and fluorescence measurements from the bottom of each well. The density of cells was sufficient to yield a confluent monolayer the next day. Hanks balanced salt solution, without phenol red, containing 20 mM HEPES (pH 7.3) and 2.5 mM probenecid (assay buffer) was prepared fresh for each experiment. Compound dilutions were made using a Beckman Biomek 2000 laboratory automation workstation, in assay buffer containing 1% DMSO. The dye-loading buffer consisted of a final concentration of 2 μM Fluo-4-AM (dissolved in DMSO and pluronic acid) in assay buffer. The existing culture media was removed from the wells and 100 μl of the dye-loading buffer was added to each well and incubated for approximately 60 min at 37° C. in a 5% CO2 incubator at 95% humidity. Once dye-loaded, the cells were washed thoroughly on an Embla cell washer with the assay buffer to remove any unincorporated dye. Exactly 100 μl assay buffer was left in each well.
(§3) Each 96 well plate containing dye-loaded cells was placed into the FLIPR machine and the laser intensity set to a suitable level to detect low basal fluorescence. To test compounds as agonists, 25 μl diluted compound was added to the plate 10 seconds into the fluorescent measurements and fluorescent response was recorded for 5 minutes. The fluorescence data was normalized to the endogenous full agonist dose-response set at 100% for the maximum response and 0% for the minimum. Each agonist concentration-response curve was constructed using a four parameter logistic equation with Microsoft Excel XLFit as follows: Y=Minimum+((Maximum−Minimum)/(1+10^(Log EC50-X)nH)), where y is the % normalized fluorescence, minimum is the minimum y, maximum is the maximum y, log EC50 is the log10 concentration which produces 50% of the maximum induced fluorescence, x is the log10 of the concentration of the agonist compound and H is the slope of the curve (the Hill Coefficient). The maximum value gives the efficacy of the agonist test compound in percentage. The concentration of agonist that produced a half-maximal response is represented by the EC50 value, the logarithm of which yielded the pEC50 value.

human V2 receptor = target: T3, human V2 receptor (Homo sapiens, UniProt P30518); experiment: Calcium flux assay (FLIPR), agonist mode, CHO cells expressing human V2 + Gqs5; details: for EC50: CHO cells stably expressing human V2 + chimeric Gqs5, calcium flux, read-out: hV2 EC50; for Emax: CHO, read-out: hV2 efficacy (%); for Emax / hV2 efficacy (%): maximum response normalized to endogenous full agonist = 100%
T3 construct: expressed in transfected cells
T3 sequence (P30518 whole entry): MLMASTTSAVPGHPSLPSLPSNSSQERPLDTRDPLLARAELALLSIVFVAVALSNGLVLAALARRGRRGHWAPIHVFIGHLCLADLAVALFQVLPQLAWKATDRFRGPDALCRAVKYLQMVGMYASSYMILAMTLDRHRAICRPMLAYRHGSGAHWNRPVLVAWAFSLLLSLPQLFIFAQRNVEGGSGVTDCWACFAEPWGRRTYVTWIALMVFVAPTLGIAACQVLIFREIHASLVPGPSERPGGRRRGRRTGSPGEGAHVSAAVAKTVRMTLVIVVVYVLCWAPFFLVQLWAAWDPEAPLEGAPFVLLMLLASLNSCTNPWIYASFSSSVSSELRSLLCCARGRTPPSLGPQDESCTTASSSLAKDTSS
Excerpt: as §1, §2, §3

Structure (SMILES) | EC50 [1] [nM] | Emax [1] [%] | EC50 (human V1a receptor) [nM] | EC50 (human V2 receptor) [nM] | Emax (human V2 receptor) [%] | hOT efficacy (%) [1] [%] | hV2 efficacy (%) (human V2 receptor)
CC[C@H](C)[C@@H]1NC(=O)[C@H](Cc2ccc(O)cc2)NC(=O)CNC(=O)CC[C@@H](C(=O)N(C)CC(=O)N[C@@H](CC(C)C)C(=O)NCC(N)=O)NC(=O)[C@H](CC(N)=O)NC(=O)[C@H](CCC(N)=O)NC1=O [Example 13] (GYIQNE[Sar]LG-NH2; lactam N-6) | 0.2 | 111 | > 27000 | 5110 | 97 | – | –
CC[C@H](C)[C@@H]1NC(=O)[C@H](Cc2ccc(O)cc2)NC(=O)CNC(=O)CC[C@@H](C(=O)N2CCC[C@H]2C(=O)N[C@@H](CC(C)C)C(=O)NCC(N)=O)NC(=O)[C@H](CC(N)=O)NC(=O)[C@H](CCC(N)=O)NC1=O [Example 24] (GYIQNEPLG-NH2; lactam N-6) | 2.2 | 152 | > 27000 | 2510 | 98 | – | –
CC[C@H](C)[C@@H]1NC(=O)[C@H](Cc2ccc(O)cc2)NC(=O)CNC(=O)CC[C@@H](C(=O)N(C)CC(=O)N[C@H](C(=O)NCC(N)=O)[C@H](C)O)NC(=O)[C@H](CC(N)=O)NC(=O)[C@H](CCC(N)=O)NC1=O [Example 25] (GYIQNE[Sar][aThr]G-NH2; lactam N-6) | 3 | – | > 10000 | 3820 | 103 | 125 | –
CC[C@H](C)[C@@H]1NC(=O)[C@H](Cc2ccc(O)cc2)NC(=O)CNC(=O)CC[C@@H](C(=O)N(C)CC(=O)N[C@H](C(=O)NCC(N)=O)C(C)C)NC(=O)[C@H](CC(N)=O)NC(=O)[C@H](CCC(N)=O)NC1=O [Example 26] (GYIQNE[Sar]VG-NH2; lactam N-6) | 2 | – | > 10000 | 2620 | 102 | 124 | –
CC[C@H](C)[C@@H]1NC(=O)[C@H](Cc2ccc(O)cc2)NC(=O)CNC(=O)CC[C@@H](C(=O)N(C)CC(=O)N[C@@H](Cc2ccccc2)C(=O)NCC(N)=O)NC(=O)[C@H](CC(N)=O)NC(=O)[C@H](CCC(N)=O)NC1=O [Example 27] (GYIQNE[Sar]FG-NH2; lactam N-6) | 5 | – | > 10000 | 1500 | 101 | 128 | –
CC[C@H](C)[C@@H]1NC(=O)[C@H](Cc2ccc(O)cc2)NC(=O)CNC(=O)CC[C@@H](C(=O)N(C)CC(=O)N[C@@H](CO)C(=O)NCC(N)=O)NC(=O)[C@H](CC(N)=O)NC(=O)[C@H](CCC(N)=O)NC1=O [Example 28] (GYIQNE[Sar]SG-NH2; lactam N-6) | 5 | – | > 10000 | 4170 | 87 | 122 | –
CC[C@H](C)[C@@H]1NC(=O)[C@H](Cc2ccc(O)cc2)NC(=O)CNC(=O)CC[C@@H](C(=O)N(C)CC(=O)N[C@@H](CCC(=O)O)C(=O)NCC(N)=O)NC(=O)[C@H](CC(N)=O)NC(=O)[C@H](CCC(N)=O)NC1=O [Example 29] (GYIQNE[Sar]EG-NH2; lactam N-6) | 32 | – | > 10000 | 10700 | 39 | 130 | –
CC[C@H](C)[C@@H]1NC(=O)[C@H](Cc2ccc(O)cc2)NC(=O)CNC(=O)CC[C@@H](C(=O)N(C)CC(=O)N[C@@H](CCN)C(=O)NCC(N)=O)NC(=O)[C@H](CC(N)=O)NC(=O)[C@H](CCC(N)=O)NC1=O [Example 30] (GYIQNE[Sar][Dab]G-NH2; lactam N-6) | 6 | 119 | > 10000 | 142 | – | – | 104
CC[C@H](C)[C@@H]1NC(=O)[C@H](Cc2ccc(O)cc2)NC(=O)CNC(=O)CC[C@@H](C(=O)N(C)CC(=O)N[C@@H](CCC(N)=O)C(=O)NCC(N)=O)NC(=O)[C@H](CC(N)=O)NC(=O)[C@H](CCC(N)=O)NC1=O [Example 31] (GYIQNE[Sar]QG-NH2; lactam N-6) | 9 | 131 | > 10000 | 2710 | 91 | – | –
CC[C@H](C)[C@@H]1NC(=O)[C@H](Cc2ccc(O)cc2)NC(=O)CNC(=O)CC[C@@H](C(=O)N(C)CC(=O)N[C@@H](Cc2ccc(O)cc2)C(=O)NCC(N)=O)NC(=O)[C@H](CC(N)=O)NC(=O)[C@H](CCC(N)=O)NC1=O [Example 32] (GYIQNE[Sar]YG-NH2; lactam N-6) | 4 | 119 | > 10000 | 1990 | 106 | – | –
CC[C@H](C)[C@H](NC(=O)CN(C)C(=O)[C@@H]1CCC(=O)NCC(=O)N[C@@H](Cc2ccc(O)cc2)C(=O)N[C@@H]([C@@H](C)CC)C(=O)N[C@@H](CCC(N)=O)C(=O)N[C@@H](CC(N)=O)C(=O)N1)C(=O)NCC(N)=O [Example 33] (GYIQNE[Sar]IG-NH2; lactam N-6) | 2 | 119 | > 27000 | 3820 | 101 | – | –
CC[C@H](C)[C@@H]1NC(=O)[C@H](Cc2ccc(O)cc2)NC(=O)CNC(=O)CC[C@@H](C(=O)N(C)CC(=O)N[C@@H](Cc2c[nH]cn2)C(=O)NCC(N)=O)NC(=O)[C@H](CC(N)=O)NC(=O)[C@H](CCC(N)=O)NC1=O [Example 34] (GYIQNE[Sar]HG-NH2; lactam N-6) | 10 | – | > 10000 | 145 | – | 136 | 120
CC[C@H](C)[C@@H]1NC(=O)[C@H](Cc2ccc(O)cc2)NC(=O)CNC(=O)CC[C@@H](C(=O)N(C)CC(=O)N[C@@H](CC2CCCCC2)C(=O)NCC(N)=O)NC(=O)[C@H](CC(N)=O)NC(=O)[C@H](CCC(N)=O)NC1=O [Example 39] (GYIQNE[Sar][Cha]G-NH2; lactam N-6) | 0.4 | 122 | > 27000 | 3710 | 111 | – | –
CCCC[C@H](NC(=O)CN(C)C(=O)[C@@H]1CCC(=O)NCC(=O)N[C@@H](Cc2ccc(O)cc2)C(=O)N[C@@H]([C@@H](C)CC)C(=O)N[C@@H](CCC(N)=O)C(=O)N[C@@H](CC(N)=O)C(=O)N1)C(=O)NCC(N)=O [Example 40] (GYIQNE[Sar][Nle]G-NH2; lactam N-6) | 0.4 | 124 | > 27000 | 2190 | 117 | – | –
CC[C@H](C)[C@@H]1NC(=O)[C@H](Cc2ccc(O)cc2)NC(=O)CNC(=O)CC[C@@H](C(=O)N(C)CC(=O)N[C@H](C(=O)NCC(N)=O)C(C)(C)C)NC(=O)[C@H](CC(N)=O)NC(=O)[C@H](CCC(N)=O)NC1=O [Example 44] (GYIQNE[Sar][Tle]G-NH2; lactam N-6) | 0.5 | 117 | > 27000 | 1230 | 112 | – | –
CC[C@H](C)[C@@H]1NC(=O)[C@H](Cc2ccc(O)cc2)NC(=O)CNC(=O)CC[C@@H](C(=O)N2C[C@H](O)C[C@H]2C(=O)N[C@@H](CC(C)C)C(=O)NCC(N)=O)NC(=O)[C@H](CC(N)=O)NC(=O)[C@H](CCC(N)=O)NC1=O [Example 45] (GYIQNE[Hyp]LG-NH2; lactam N-6) | 0.6 | 113 | > 27000 | 3810 | 91 | – | –
